# Source: patent publication US4221682A, “Tetrapeptides having analgesic activity” (American Home Products Corporation, priority 1979, dated 1980)
# Like-named read-outs stand apart in the source and are kept apart here. Positions of bridges follow the written chain, without caps; N, C: chain ends. Non-standard residues stand in square brackets, D forms with d. Residues, ends and D or L forms follow the SMILES beside them. Chains are numbered I, II in the order given. NMeF = CN[C@@H](Cc1ccccc1)C(=O)O
# Assays:
# [1] = system: male rats; test: rat-tail flick test of D'Amour and Smith, intravenous administration; type: in vivo; details: for Positive Responses/Total Possible Response: all time points
# Experimental: The holders are situated so that a high intensity light beam will shine on the tip of the rats tail. The light beam intensity is adjusted so that normal rats respond by removing their tails from the light stimulus within from 3 to 8 seconds. The average of three time readings for removal of a rats tail from the light beam, taken 20 minutes apart serves as a pre-drug control. The rats are selected for use based upon control readings that agree within one second. The compounds of this invention are then administered intravenously and the test performed at 15, 30 and 60 minutes to determine the animals reaction time which is compared with the control average and tested for significance. The number of rats showing analgesia at each time period out of the total group for each dose administered is noted as a ratio and the number of positive responses observed is relative to the total number of challenges for each group of rats.
# [2] = system: rats; details: cited from earlier work; for analgesia: injection in the brain ventricle in rats, fully reversible by naloxone
# [3] = cited from earlier work; for activity when administered peripherally: peripheral administration
# [4] = system: mice; details: central administration (Baxter et al.); cited from earlier work
# [5] = central administration (Pert et al.); cited from earlier work
# [6] = system: guinea pig ileum; details: cited from earlier work
# [7] = system: opiate receptor; details: brain homogenates; cited from earlier work
# [8] = system: mouse vas deferens; details: cited from earlier work
# [9] = system: rats; details: peripheral (i.v.), rats (Bajusz et al.); cited from earlier work
compound,measurement,setting,value
"CN(C(=O)CNC(=O)[C@@H](CSSC[C@@H](NC(=O)[C@@H](N)Cc1ccc(O)cc1)C(=O)NCC(=O)N(C)[C@@H](Cc1ccccc1)C(N)=O)NC(=O)[C@@H](N)Cc1ccc(O)cc1)[C@@H](Cc1ccccc1)C(N)=O [Example 2, L-Tyrosyl-D-Cysteinyl-Glycyl-N-Methyl-L-Phenylalanyl Amide Disulfide Acetate] (I: H-Y[dC]G[NMeF]-NH2 / II: H-Y[dC]G[NMeF]-NH2; disulfide I:2-II:2)",Respiration normal (number of rats),[1]; 1.0 mg/kg i.v.,5/5
same,dead (number of rats),[1]; 1.0 mg/kg i.v.,1/6
same,No. Analgesic/No. Tested,"[1]; 1.0 mg/kg i.v., 15 minutes",3/6
same,No. Analgesic/No. Tested,"[1]; 1.0 mg/kg i.v., 30 minutes",2/6
same,No. Analgesic/No. Tested,"[1]; 1.0 mg/kg i.v., 60 minutes",1/5
same,Positive Responses/Total Possible Response,[1]; 1.0 mg/kg i.v.,6/17
same,Respiration very depressed (number of rats),[1]; 5.0 mg/kg i.v.,6/6
same,dead (number of rats),[1]; 5.0 mg/kg i.v.,0/6
same,No. Analgesic/No. Tested,"[1]; 5.0 mg/kg i.v., 15 minutes",6/6
same,No. Analgesic/No. Tested,"[1]; 5.0 mg/kg i.v., 30 minutes",5/6
same,No. Analgesic/No. Tested,"[1]; 5.0 mg/kg i.v., 60 minutes",5/6
same,Positive Responses/Total Possible Response,[1]; 5.0 mg/kg i.v.,16/18
H-Tyr-D-Ala-Gly-Phe-D-Leu-OH,antinociceptive and behavioral effects,"[2]; rats, central administration (Baxter et al.)",exhibit antinociceptive and behavioral effects
same,peripheral analgesic activity,[3]; peripheral administration (Wei et al.; Romer et al.),exhibit peripheral analgesic activity
same,antinociceptive and behavioral effects,[4],exhibit antinociceptive and behavioral effects
H-Tyr-D-Ala-Gly-Phe-D-Met-NH2,analgesic activity,"[2]; rats, centrally administered (Fredrickson)",produced analgesic activity
H-Tyr-D-Ala-Gly-Phe-Met-NH2,analgesia,[5],long lasting analgesic
H-Tyr-Gly-Gly-Phe-Leu-OH [leucine-enkephalin],block of electrically evoked contractions,[6],mimic the ability of morphine to block electrically evoked contractions
same,inhibition of stereospecific receptor binding of 3H-naloxone,[7],inhibit the stereospecific receptor binding
same,analgesia,[2],induce a profound analgesia
same,activity when administered peripherally,[3],inactive
same,block of electrically evoked contractions,[8],mimic the ability of morphine to block electrically evoked contractions
H-Tyr-Gly-Gly-Phe-Met-OH [methionine-enkephalin],block of electrically evoked contractions,[6],mimic the ability of morphine to block electrically evoked contractions
same,inhibition of stereospecific receptor binding of 3H-naloxone,[7],inhibit the stereospecific receptor binding
same,analgesia,[2],induce a profound analgesia
same,activity when administered peripherally,[3],inactive
same,block of electrically evoked contractions,[8],mimic the ability of morphine to block electrically evoked contractions
H-Y[dM]GFP-NH2,analgesic activity,[9],peripheral (i.v.) analgesic activity
